The results in this text go back to US20160287602A1, “METHODS FOR PROMOTING MOTOR NEURON SURVIVAL” (PRESIDENT AND FELLOWS OF HARVARD COLLEGE, priority 2013, published 2016).

Assay [1] has as its system wild-type (Hb9::GFP) mouse ESC derived MNs. Nature of the assay: MN survival after trophic factor withdrawal, mixed culture. The class given is cell-based. From the text:
In the present study, we have screened highly specific small molecule kinase inhibitors to identify those which could promote MN survival. For the screen, we generated MNs from wild-type (Hb9::GFP) and SOD1^G93A (SOD1^G93A/Hb9::GFP) mouse ESCs using published protocols (Di Giorgio et al., 2007). We withdrew trophic factors as a standard method to induce MN death. Cell plating density as well as timing for initiation and duration of trophic factor withdrawal were used exactly as published to achieve ˜80% MN death in 3 days (FIG. 1A) (Yang et al., 2013). […] We continued to work with this compound class as it reproducibly promoted survival of both MNs types and the effect was robust. We further reasoned that since this compound class promoted survival of both MN types, the probability of its working in other contexts such as on human MNs and in the ALS mouse model was maximum. […]
Trophic factors were removed and ZM447439 was added to the cultures as previously and MN survival was analyzed on day 7, 14 & 21.

For assay [2], the system named is FACS purified Hb9::GFP MNs. Nature of the assay: MN survival after trophic factor withdrawal, FACS purified MN culture. Type of assay: cell-based, mouse. The settings on record: FACS purified MN cultures, trophic factors withdrawn, FIG. 1C. An excerpt:
ESC-derived MN culture achieves ˜30%-50% MN differentiation efficiency and is therefore highly heterogeneous. To examine whether AKIs specifically act in a cell-autonomous or non-cell-autonomous manner, we established a highly enriched MN culture through FACS purification based on Hb9::GFP reporter expression. […] Next, we asked whether AKIs exert their survival promoting effect only cell-autonomously or whether they also function non-cell-autonomously to rescue MN death. To address this question we produced astrocyte conditioned medium (ACM) by incubating primary murine astrocytes with AKIs (VX-680 and ZM447439). The ACM was then dialyzed using a dialyzer with pore size appropriate for eliminating residual AKIs.

The subject of assay [3] is synaptophysin in Hb9::GFP MN cultures. Put plainly: Synaptophysin immunoblotting. Type of assay: cell-based, mouse.
For assay [4], the system named is Hb9::GFP MNs. Nature of the assay: MN survival in co-culture with primary WT or SOD1^G93A astrocytes. Type of assay: cell-based, mouse. The conditions noted are these: Hb9::GFP MNs on WT or SOD1^G93A astrocytes. How it is done:
(§1) We sought to examine whether AKIs decrease the toxic effect of SOD1^G93A mutant astrocytes. We first cultured primary astrocytes from wild type (WT) and SOD1^G93A mice and plated FACS purified MNs on top. We observed significant cell death when MNs were cultured on mutated astrocytes compared to WT astrocytes. ZM447439 improved both Hb9::GFP and SOD1^G93A/Hb9::GFP MN survival.

In assay [5] the test system is SOD1^G93A/Hb9::GFP MNs. The assay is described as above. The class given is cell-based, mouse. As to the method:
as §1

The subject of assay [6] is Prkarlb. Put plainly: Prkar1b immunostaining in surviving MNs. The conditions noted are these: absence of TFs. The class given is cell-based, mouse.
The subject of assay [7] is Hb9::GFP and SOD1^G93A/Hb9::GFP MNs. Put plainly: Microarray analysis of gene expression in MNs. Type of assay: cell-based, mouse. The settings on record: compound in the absence of TFs versus -TF. From the text:
Next we sought to investigate the mechanism by which AKIs promote MN survival. To evaluate this comprehensively we performed microarray analysis to compare gene expression between MNs cultured with: 1) Trophic factors (+TF), 2) No trophic factors (−TF), 3) VX-680 in the absence of TFs, and 4) ZM447439 in the absence of TFs. […] Gene expression was compared between +TF and −TF, VX-680 and −TF, and ZM447439 and −TF. With a cut off of more than 3 fold difference, there were 85 genes overlapping in all three comparison in Hb9::GFP MNs and 57 in SOD1^G93A/Hb9::GFP MNs. We found 39 overlapping genes when we compared both types of MNs (FIG. 5B). […] We analyzed the shortlist of 39 genes by using DAVID functional annotation bioinformatics microarray analysis software to find the potential pathways involved in MN survival. […] PKA is known to phosphorylate BAD protein, leading to increased cell survival (Jose M. LIZCANO et al., 2000; Julian Downward et al., Nature cell biology 1999; Komaki S et al., Neurosci Lett 2012). […] We further investigated this pathway by lentivirus knockdown of Prkarlb.

The test system of assay [8] is human ESC derived MNs on SOD1^G93A astrocytes. Put plainly: Human ESC derived MNs co-cultured with astrocytes. The class given is cell-based. From the text:
We generated MNs from a human ESC line expressing an HB9::GFP transgene [HuES-3/Hb9::GFP (Di Giorgio et al., 2008)]. Human ESC derived MN cultures were pre-treated with AraC to eliminate progenitor cells. We induced MN death by again withdrawing trophic factors. […] We also investigated the toxic effect of SOD1^G93A astrocytes on human ESC derived MN survival. We found significant death of human MNs cultured on mutant astrocytes.

For assay [9], the system named is iPSC-derived MN lines. Nature of the assay: Morphology of iPSC-derived MNs. The conditions noted are these: all iPSC-derived MN lines, absence of trophic factor. The class given is cell-based, human. From the text:
(§2) We produced MNs from human iPSCs lines including a healthy control, two ALS patients expressing confirmed mutations in SOD1 (Boulting et al., 2011), two with mutations in TDP-43 and one in C90RF72. We treated these cultures with AraC to minimize the number of proliferating progenitors. […] We also examined the effect of SOD 1^G93A astrocytes co-culture on iPSC derived MNs. We found no toxic effect on survival in any of the patient iPSC derived MNs, but we did observe decreased MN survival in the control iPSC derived MNs. […] We also looked at the effect of AKIs on morphology and synapse formation. […] In addition, by immunoblot we observed that ZM447439 enhanced synaptic protein, synaptophysin, expression in both the presence and absence of trophic factors.

Assay [10] concerns iPSC-derived MN lines. Put plainly: Synapse formation of iPSC-derived MNs. The class given is cell-based, human. The conditions noted are these: all iPSC-derived MN lines, absence of trophic factor.
Description: as §2

“Also recorded” adds a separate entry of the source.

Take `COc1cc2c(Nc3ccc(NC(=O)c4ccccc4)cc3)ncnc2cc1OCCCN1CCOCC1` [ZM447439, N-[4-[[6-Methoxy-7-[3-(4-morpholinyl)propoxy]-4-quinazolinyl]amino]phenyl]benzamide]: in [1] (mixed MN culture, FIG. 1B), the “survival effect in dose dependent assay, comparison among AKIs” value was “most effective and potent in promoting MN survival; also recorded: most effective and potent of all AKIs assayed”. In addition, the “survival of MNs (number of surviving MNs)” value in assay [1] (trophic factor withdrawal, 3 days, wild-type Hb9::GFP MNs) was “consistently increased the survival of MNs; also recorded: most potent and robust at increasing survival”. For the same compound, the “long term MN survival” value in [1] (trophic factors removed, day 7, 14 & 21, Hb9::GFP MNs) was “increased survival”. For the same compound, the MN survival result in [2] is on record as “rescued MN survival in a dose dependent fashion”. Moreover, the “expression of synaptic protein synaptophysin” value in assay [3] is reported as “increased expression”. Also, the “MN survival in astrocyte co-culture” value was “improved” in assay [4], “less of an increase in survival” in [5] (SOD1^G93A/Hb9::GFP MN co-cultured with SOD1^G93A astrocytes) and “improved” in assay [5] (SOD1^G93A/Hb9::GFP MNs on WT or SOD1^G93A astrocytes). Moreover, the “levels of Prkarlb” value in assay [6] is “increased levels”. Besides, in assay [7], the “expression of genes related to synapse formation (Syt1, Snap25 and Sv2c, Map2 and Dcx)” value was “upregulated”. Besides, in assay [8] (SOD1^G93A astrocytes co-culture), the “death of human MNs cultured on mutant astrocytes” value was “completely rescued; also recorded: decreases the toxic effect”. In addition, in assay [8] (co-cultured with both wild-type and mutant astrocytes), the “size of human MN” value is recorded as “significantly increased”. For the same compound, in assay [9], the morphology result is reported as “preserved both”. Moreover, the synapse formation result in [10] was “preserved both”.
